In PMC6288363, “A Novel Selective JAK2 Inhibitor Identified Using Pharmacological Interactions” (Frontiers in Pharmacology, 2018):

How the values were obtained:
JAK3 = target: T1, JAK3 (Homo sapiens, UniProt P52333); assay: KINOMEscan bead-based competition Kd; assay type: binding
T1 sequence (P52333 1-1124): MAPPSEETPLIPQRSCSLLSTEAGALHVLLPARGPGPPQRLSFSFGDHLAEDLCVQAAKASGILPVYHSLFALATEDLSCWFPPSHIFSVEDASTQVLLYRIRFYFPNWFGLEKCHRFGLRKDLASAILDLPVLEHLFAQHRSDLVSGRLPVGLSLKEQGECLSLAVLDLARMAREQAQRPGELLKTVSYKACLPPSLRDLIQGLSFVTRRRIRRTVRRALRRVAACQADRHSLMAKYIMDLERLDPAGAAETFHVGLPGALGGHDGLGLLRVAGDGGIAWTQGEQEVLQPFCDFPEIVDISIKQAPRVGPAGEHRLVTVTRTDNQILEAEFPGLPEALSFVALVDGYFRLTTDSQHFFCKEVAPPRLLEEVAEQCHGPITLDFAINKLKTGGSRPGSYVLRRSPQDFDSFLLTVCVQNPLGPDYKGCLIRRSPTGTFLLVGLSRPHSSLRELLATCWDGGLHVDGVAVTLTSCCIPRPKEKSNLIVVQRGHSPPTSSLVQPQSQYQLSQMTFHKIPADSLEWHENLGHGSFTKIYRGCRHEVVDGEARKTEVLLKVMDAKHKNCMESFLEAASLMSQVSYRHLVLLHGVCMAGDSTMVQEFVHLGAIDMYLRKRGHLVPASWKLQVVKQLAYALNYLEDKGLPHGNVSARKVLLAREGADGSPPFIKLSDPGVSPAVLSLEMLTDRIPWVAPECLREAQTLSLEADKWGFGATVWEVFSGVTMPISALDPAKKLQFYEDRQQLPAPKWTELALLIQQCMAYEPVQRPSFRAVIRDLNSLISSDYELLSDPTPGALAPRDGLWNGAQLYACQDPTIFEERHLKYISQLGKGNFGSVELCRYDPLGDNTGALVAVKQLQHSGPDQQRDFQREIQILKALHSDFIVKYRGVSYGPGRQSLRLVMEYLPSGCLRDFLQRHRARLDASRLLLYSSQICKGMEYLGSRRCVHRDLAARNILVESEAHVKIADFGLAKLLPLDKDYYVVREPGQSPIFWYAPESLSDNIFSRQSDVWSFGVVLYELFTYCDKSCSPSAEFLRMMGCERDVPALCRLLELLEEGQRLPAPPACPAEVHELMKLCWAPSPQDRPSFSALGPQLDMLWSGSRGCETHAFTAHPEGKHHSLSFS

JAK2 = target: T2, JAK2 (Homo sapiens, UniProt O60674); assay: KINOMEscan bead-based competition Kd; also Z'LYTE kinase assay, […] inhibition at […]; assay type: binding
T2 construct: JH1 domain
T2 sequence (O60674 840-1132 limits assumed): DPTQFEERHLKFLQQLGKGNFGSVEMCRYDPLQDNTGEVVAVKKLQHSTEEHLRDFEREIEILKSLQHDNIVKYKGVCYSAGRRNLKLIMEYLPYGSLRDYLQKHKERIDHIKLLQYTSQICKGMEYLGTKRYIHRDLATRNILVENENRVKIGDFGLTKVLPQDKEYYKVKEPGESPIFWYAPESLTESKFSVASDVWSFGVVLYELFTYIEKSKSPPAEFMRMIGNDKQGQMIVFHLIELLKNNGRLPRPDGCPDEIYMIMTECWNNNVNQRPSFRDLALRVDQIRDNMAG

CCN(CC)CC[C@H](CNc1ccnc2cc(Cl)ccc12)c1ccc(O)cc1 [NSC13626] showed a Kd (JAK3) of 4.6 µM and a Kd (JAK2) of 6.6 µM.
